One may read the IC50 as the concentration that gives 50% inhibition.

Molecules are shown by their SMILES. Values after ≈ are worked out from the molar mass of the structure shown. Where two headings read alike, the source gives them in different places. Marks after values point to notes of the source that are not given here. Bounds are passed on as bounds.

This is an account of results in PMC9497102, “Thiosemicarbazone Derivatives Developed to Overcome COTI-2 Resistance” (Cancers, 2022).

On the set-up of data set [1]: method as in doi:10.1002/ejic.201200360. Conditions: cited from earlier work.
The nature of data set [2]: Cyclic voltammetry of iron(III)–ligand (1:2) systems. It counts as physicochemical. To be noted: cL = 1 mM, pH 7.40, 25 °C, 90% (v/v) DMSO/H2O, 0.01 V/s scan rate. On the procedure:
(§1) Cyclic voltammograms for the Fe(III) and Cu(II) complexes were recorded in 90% (v/v) DMSO/water solution containing 1 mM ligand and 0.5 mM FeCl3 or 1 mM CuCl2 using a conventional three-electrode system under nitrogen atmosphere and a PC-Controlled Electrochemical Measurement System (EF 451). The ionic strength was 0.10 M, adjusted by TBAN. Samples were purged for 15 min with Ar before recording the cyclic voltammograms. Platinum electrodes were used as the working and auxiliary electrodes, and Ag/AgCl (3 M KCl) was applied as the reference electrode. The electrochemical potentials were converted into the normal hydrogen electrode (NHE) scale by adding 0.222 V. The instrument was calibrated with an aqueous solution of K3[Fe(CN)6] (E1/2 = +0.386 V vs. NHE). Redox potentials were obtained at different scan rates (5–25 mV/s) in the range of −0.8 to +0.1 V. The dependence of the peak current values of the square root of the scan rates is shown in Figure S5 for the iron and copper complexes of COTI-NMeCy.

For data set [3], the system named is GLC-4 cells. The arrangement: method as in PMID 33190481. Conditions: 72 h, MTT; cited from earlier work.
The test system of data set [4] is GLC-4/adr cells (ABCC1-overexpressing). The arrangement: method as in PMID 33190481. To be noted: cited from earlier work; for IC50: 72 h, MTT; for Relative Resistance GLC-4/adr: IC50 of GLC-4/adr divided by IC50 of parental GLC-4.
On the set-up of data set [5]: method as in PMID 21523301. To be noted: cited from earlier work.
Data set [6] deals with SW480 cells. The arrangement: method as in PMID 33190481. To be noted: 72 h, MTT; cited from earlier work.
In data set [7] the test system is SW480/Coti cells. The arrangement: method as in PMID 33190481. To be noted: cited from earlier work; for IC50: 72 h, MTT; for Relative Resistance SW480/Coti: IC50 of resistant subline divided by IC50 of parental SW480.
Details of data set [8]: method as in doi:10.1002/ejic.200901174. To be noted: cited from earlier work.
Data set [9] concerns SW480/Tria cells. The arrangement: method as in PMID 33190481. Conditions: cited from earlier work; for IC50: 72 h, MTT; for Relative Resistance SW480/Tria: IC50 of resistant subline divided by IC50 of parental SW480.
The nature of data set [10]: Cyclic voltammetry of copper(II)–ligand (1:1) systems. It counts as physicochemical. Conditions: cL = cCu(II) = 1 mM, pH 7.40, 25 °C, 90% (v/v) DMSO/H2O, 0.01 V/s scan rate. On the procedure: as §1
Data set [11] is described as follows: Distribution coefficient, shake-flask n-octanol/buffer pH 7.4. The class given is physicochemical. Conditions: n-octanol/buffered aqueous solution; n-octanol/water, pH 7.4, 25 °C; read-out: log D7.4 (meas.). On the procedure:
Distribution coefficient (D7.4) values of COTI-NH2 were determined by the shake-flask method in n-octanol/buffered aqueous solution at pH 7.4 in 20 mM phosphate buffer (0.10 M KCl) at 25.0 ± 0.2 °C following a similar approach to that reported in our previous works. The other compounds and all of their Cu(II) complexes were too lipophilic to obtain experimental data. Thus, the logP values were calculated for COTI-NMeCy, COTI-Nme2, and COTI-2 (MarvinSketch,version 16.12.12.0, calculation module developed by ChemAxon (Budapest, Hungary), http://www.chemaxon.com/products/marvin/marvinsketch/ (accessed on 20 August 2022)).

A short description of data set [12]: Iron(II) complex formation, UV-vis spectrophotometric titrations (anaerobic). It counts as physicochemical. On the procedure: (§2) The UV-vis spectra were recorded using an Agilent Cary 8454 diode array spectrophotometer in the 200 to 950 nm window, and the path length was varied between 1 and 5 cm, depending on the solubility (thus the applicable concentration). For the spectrophotometric titrations, the same instruments (Metrohm 665 Dosimat burette, Orion 710A pH-meter, Metrohm combined pH glass electrode) and experimental setup (ionic strength: 0.10 M (KCl); titrant: 0.10 M carbonate-free KOH solution in 30% (v/v) DMSO/H2O; samples: prepared in 30% (v/v) DMSO/H2O; calibration: method of Irving et al.; pH range: 1.0 to 13.5; and sample volume: 10 cm^3) were used as in our previous work. Argon overpressure was used for the Fe(II)-containing samples when the Fe(II) stock solution was added to the samples in tightly closed titration vessels, which were previously completely deoxygenated (for 20 min). Measurements were taken with ligands (10–80 μM, depending on solubility) in the presence of 1, 0.5, and 0.3 equiv. of Cu(II), Fe(II), and Fe(III) ions. Equilibrium constants, such as the proton dissociation constants (pKa) of the ligands, the overall stability constants (logβ) of the metal complexes, and the UV-vis spectra of the individual ligand or complex species were computed using the program PSEQUAD [18], as was the case in our previous works.

The nature of data set [13]: pKa by UV-vis spectrophotometric titrations. It counts as physicochemical. To be noted: 30% (v/v) DMSO/H2O solution, I = 0.1 M (KCl), 25 °C. On the procedure: as §2
Data set [14] is described as follows: Thermodynamic solubility in water at pH 7.4 (UV-vis). The class given is physicochemical. To be noted: water at pH 7.4 (20 mM HEPES buffer), aqueous buffer, thermodynamic from solid, water pH 7.4 (20 mM HEPES), 25 °C, read-out: S (meas.). On the procedure:
(§3) The thermodynamic solubility of COTI-NMeCy, COTI-Nme2, COTI-NH2, and COTI-2 was measured for the saturated solutions in water at pH 7.4 (20 mM HEPES buffer) at 25.0 ± 0.1 °C. The concentrations of the compounds were determined by UV-vis spectrophotometry using stock solutions of the compounds with known concentrations dissolved in pure DMSO, and 50% and 1% (v/v) DMSO/buffered aqueous solution for the calibration. The parallel artificial membrane permeability assay (PAMPA) was applied for the ligands with a Corning Gentest pre-coated PAMPA Plate System. Peff values were calculated according to the equation reported by Yu et al..

A short description of data set [15]: Parallel artificial membrane permeability assay (PAMPA). It counts as in vitro ADME. Conditions: pH 7.4, 25 °C, read-out: Peff. On the procedure: as §3
Data set [16] is described as follows: Copper(II) complex formation, UV-vis titrations and EDTA competition. The class given is physicochemical. On the procedure: as §2
The conditional stability constants (β’) of the Cu(II) complexes were calculated from competition reactions with EDTA at pH = 5.9 using MES (50 mM) when the metal:ligand ratio was 1:1 (clig = cCu between 10 and 80 μM). Individual samples were prepared in which the ligand:EDTA ratio was variable between 1:0 and 1:50. After a 3 h incubation period, UV-vis spectra were collected. The calculation of the β’ (CuL) values was performed following the same method as that in our previous work using the logβ’5.90 = 13.89 of complex [Cu(EDTA)]^2− obtained from the previously reported equilibrium constants of EDTA and its Cu(II) complex.

Details of data set [17]: method as in PMID 33190481. Conditions: after formation of mixed-ligand GSH adduct; cited from earlier work.
Data set [18] can be described thus: Zinc(II) complex formation, UV-vis spectrophotometric titrations. The class given is physicochemical.
Data set [19] can be described thus: Iron(III) complex formation, UV-vis spectrophotometric titrations. The class given is physicochemical. On the procedure: as §2
Setting [20] is: T = 25.0 °C, I = 0.10 M (KCl), 30% (v/v) DMSO/H2O.
Where [21] appears, read: calculated at cM = 1 μM, cL = 10 μM, pH = 7.40.

For `NC(=S)NN=Cc1ncccc1N` [Triapine, 3-aminopyridine-2-carboxaldehyde thiosemicarbazone], the logD7.4 result in data set [1] is “+0.85”. For the same molecule, in [2], the “E’ vs. NHE, iron(III)–ligand (1:2) systems” value is listed as “+0.03 V”. For the same molecule, the IC50 in data set [3] was 0.65 ± 0.09 µM; in data set [4] it was 0.57 ± 0.05 µM; in [6] it was 0.82 ± 0.18 µM; in data set [7] it was 0.81 ± 0.08 µM; in data set [9], over 50 µM. Moreover, the “Relative Resistance GLC-4/adr” value in data set [4] was 0.9 ^n.s. Also, the “E′ of the iron complex” value in [5] was “+0.07 V”. Besides, in data set [7], the “Relative Resistance SW480/Coti” value is 1.0 ^n.s. In addition, in data set [8], the “logβ [CuL]^+” value is given as 13.9. Moreover, in [9], the “Relative Resistance SW480/Tria” value was over 61. In data set [10], the “E′ vs. NHE, copper(II)–ligand (1:1) systems” value is given as -0.13 V.

`NC(=S)N/N=C1\CCCc2cccnc21` [COTI-NH2]: the logD in [11] is 1.64. In data set [12] (setting [20]), the “logβ [Fe(II)L2]” value is listed as 31.21 ± 0.09 and the “logβ [Fe(II)L]^+” value is listed as 17.36 ± 0.06. Further, the “pFe(II)” value in [12] (–log[free Fe(II)] calculated at cFe = 1 μM, cL = 10 μM, pH = 7.40) was 17.4. The pKa in [13] (read-out: pKa (H2L)) is 4.39 ± 0.01. In addition, in [13] (read-out: pKa (HL)), the pKa was 12.22 ± 0.01. In addition, the concentration for half-maximal inhibition (IC50) in [3] was 3.64 ± 0.39 µM. Besides, in [4], the IC50 was 3.65 ± 0.41 µM and the “Relative Resistance GLC-4/adr” value is 1.0 ^n.s. Further, the concentration for half-maximal inhibition (IC50) in [6] was 7.85 ± 0.92 µM. The solubility thermodynamic in data set [14] came to 737 µM (≈ 162 µg/mL). Also, the Papp in data set [15] was 6.7 ± 0.7 ×10⁻⁶ cm/s. Also, in data set [7], the IC50 was 4.39 ± 0.56 µM and the “Relative Resistance SW480/Coti” value is reported as 0.6 ***. Further, in [16] (setting [21]), the pCu is 13.1. Further, the “logβ5.9′ [CuL]^+” value in data set [16] (conditional stability constant, EDTA competition at pH = 5.90) amounted to 10.59 ± 0.08. Also, the “logβ [CuL]^+” value in data set [16] (β = β’ × αH, [H+] = 10^–5.90 M) amounted to 16.92. Besides, the “redox reaction of the copper(II) complex with GSH” value in data set [17] is given as “relatively slow redox reaction took place”. In addition, in data set [18] (setting [20]), the “logβ [ZnL2]” value stood at 25.42 ± 0.04 and the “logβ [ZnL]^+” value came out at 14.07 ± 0.04. The pZn in data set [18] (setting [21]) was 11.6. Further, in data set [9], the IC50 was over 20 µM and the “Relative Resistance SW480/Tria” value is over 2.5. In addition, the “E′ vs. NHE, copper(II)–ligand (1:1) systems” value in data set [10] is recorded as -0.17 V. The “pFe(III)*” value in data set [19] (Fe(III) hydroxido species also considered as unbound metal, cFe = 1 μM, cL = 10 μM, pH = 7.40) is given as 10.4. In data set [19] (setting [20]), the “logβ [Fe(III)L2]^+” value worked out at 32.29 ± 0.08 and the “logβ [Fe(III)L]^2+” value is on record as 20.00 ± 0.09. The “pFe(III)” value in [19] (–log[free Fe(III)] calculated at cFe = 1 μM, cL = 10 μM, pH = 7.40) was 18.5.
